# The source made the active and inactive calls. No cut-off for these calls is given here.
# How the values were obtained:
# [1] = test system: UMSCC1; experiment: Growth inhibition of human UM-SCC-1 cells assessed as decrease in cell number at 0.01 uM in presence of 1 uM opioid antagonist naloxone incubated for 24 to 96 hrs by MTS assay relative to control; assay type: functional, cell-based
# [2] = test system: MIA PaCa-2; experiment: Antitumor activity against human MIAPaCa2 cells xenografted in athymic BALB/c nu/nu nude mouse assessed spleen weight at 10 mg/kg dosed daily measured on day 45 after tumor cell inoculation (reference value: 761 +/- 61 mg); assay type: functional
# [3] = test system: MIA PaCa-2; experiment: Antitumor activity against human MIAPaCa2 cells xenografted in athymic BALB/c nu/nu nude mouse assessed tumor volume at 120 mg/kg dosed every 3 days and co-treated with 10 mg/kg OGF measured on day 45 after tumor cell inoculation (reference value: 8935 +/- 1694 mm3); assay type: functional
# [4] = test system: MIA PaCa-2; experiment: Antitumor activity against human MIAPaCa2 cells xenografted in athymic BALB/c nu/nu nude mouse assessed tumor weight at 120 mg/kg dosed every 3 days and co-treated with 10 mg/kg OGF measured on day 45 after tumor cell inoculation (reference value: 5.5 +/- 1 g); assay type: functional
# [5] = test system: MIA PaCa-2; experiment: Antitumor activity against human MIAPaCa2 cells xenografted in athymic BALB/c nu/nu nude mouse assessed as latency time for measurable tumor at 120 mg/kg dosed every 3 days and co-treated with 10 mg/kg OGF measured on day 10 after tumor cell inoculation (reference value: 13.2 +/- 1.8 days); assay type: functional
# [6] = test system: MIA PaCa-2; experiment: Antitumor activity against human MIAPaCa2 cells xenografted in athymic BALB/c nu/nu nude mouse assessed tumor volume at 10 mg/kg dosed daily measured on day 45 after tumor cell inoculation (reference value: 8935 +/- 1694 mm3); assay type: functional
# [7] = test system: UMSCC1; experiment: Antitumor activity against human UM-SCC-1 cells xenografted in nu/nu mouse assessed as latency time for measurable (62.5 mm3) tumors at 120 mg/kg dosed every 3 days and co-treated with 10 mg/kg OGF (Rvb <=14 days); assay type: functional
# [8] = test system: MIA PaCa-2; experiment: Antitumor activity against human MIAPaCa2 cells xenografted in athymic BALB/c nu/nu nude mouse assessed tumor weight at 10 mg/kg dosed daily measured on day 45 after tumor cell inoculation (reference value: 5.5 +/- 1 g); assay type: functional
# [9] = test system: MIA PaCa-2; experiment: Antitumor activity against human MIAPaCa2 cells xenografted in athymic BALB/c nu/nu nude mouse assessed as tumor incidence at 10 mg/kg dosed daily measured on day 10 after tumor cell inoculation (reference value: 80%); assay type: functional
# [10] = test system: MIA PaCa-2; experiment: Antitumor activity against human MIAPaCa2 cells xenografted in athymic BALB/c nu/nu nude mouse assessed as latency time for visible tumor at 10 mg/kg dosed daily measured on day 10 after tumor cell inoculation (reference value: 10.1 +/- 1.8 days); assay type: functional
# [11] = test system: MIA PaCa-2; experiment: Growth inhibition of human MIAPaCa2 cells assessed as decrease in cell number at 0.01 uM incubated for 72 hrs in presence of 1 uM OGF by MTS assay relative to control; assay type: functional
# [12] = test system: UMSCC1; experiment: Induction of cell cycle arrest in human UM-SCC-1 cells assessed as accumulation at G1/S phase in presence of OGF after 6 hrs by flow cytometry; assay type: functional, cell-based
# [13] = test system: MIA PaCa-2; experiment: Antitumor activity against human MIAPaCa2 cells xenografted in athymic BALB/c nu/nu nude mouse assessed as tumor incidence at 120 mg/kg dosed every 3 days and co-treated with 10 mg/kg OGF and measured on day 16 after tumor cell inoculation; assay type: functional
# [14] = test system: MIA PaCa-2; experiment: Antitumor activity against human MIAPaCa2 cells xenografted in athymic BALB/c nu/nu nude mouse assessed as time delay in visible tumor development at 120 mg/kg dosed every 3 days and co-treated with 10 mg/kg OGF relative to control; assay type: functional
# [15] = test system: MIA PaCa-2; experiment: Antitumor activity against human MIAPaCa2 cells xenografted in athymic BALB/c nu/nu nude mouse assessed as reduction in tumor weight at 120 mg/kg dosed every 3 days and co-treated with 10 mg/kg OGF measured on day 45 after tumor cell inoculation; assay type: functional; parameters: scale not given: the % may be the effect or the level left
# [16] = test system: Mus musculus; experiment: Effect on plasma OGF level in athymic BALB/c nu/nu nude mouse xenografted with MIAPaCa2 cells at 120 mg/kg dosed every 3 days by radioimmunoassay; assay type: functional, organism-based
# [17] = test system: MIA PaCa-2; experiment: Antitumor activity against human MIAPaCa2 cells xenografted in athymic BALB/c nu/nu nude mouse assessed spleen weight at 120 mg/kg dosed every 3 days and co-treated with 10 mg/kg OGF measured on day 45 after tumor cell inoculation (reference value: 761 +/- 61 mg); assay type: functional
# [18] = test system: MIA PaCa-2; experiment: Growth inhibition of human MIAPaCa2 cells assessed as decrease in cell number at 0.01 uM incubated for 48 hrs in presence of 1 uM OGF by MTS assay relative to control; assay type: functional
# [19] = test system: MIA PaCa-2; experiment: Antitumor activity against human MIAPaCa2 cells xenografted in athymic BALB/c nu/nu nude mouse assessed as effect on tumor incidence at 120 mg/kg dosed every 3 days measured on day 16 after tumor cell inoculation relative to control; assay type: functional, organism-based
# [20] = test system: UMSCC1; experiment: Antitumor activity against human UM-SCC-1 cells xenografted in nu/nu mouse assessed as reduction in tumor measured on 4 to 36 day of measurable tumors at 120 mg/kg dosed every 3 days relative to control; assay type: functional, organism-based
# [21] = test system: MIA PaCa-2; experiment: Growth inhibition of human MIAPaCa2 cells assessed as decrease in cell number at 0.01 uM incubated for 48 hrs in presence of 1 uM OGF by trypan blue staining assay relative to control; assay type: functional
# [22] = test system: MIA PaCa-2; experiment: Antitumor activity against human MIAPaCa2 cells xenografted in athymic BALB/c nu/nu nude mouse assessed as reduction in tumor volume at 120 mg/kg dosed every 3 days and co-treated with 10 mg/kg OGF measured on day 45 after tumor cell inoculation; assay type: functional; parameters: scale not given: the % may be the effect or the level left
# [23] = test system: MIA PaCa-2; experiment: Antitumor activity against human MIAPaCa2 cells xenografted in athymic BALB/c nu/nu nude mouse assessed as latency time for visible tumor at 120 mg/kg dosed every 3 days and co-treated with 10 mg/kg OGF measured on day 10 after tumor cell inoculation (reference value: 10.1 +/- 1.8 days); assay type: functional
# [24] = test system: PANC-1; experiment: Growth inhibition of human PANC1 cells assessed as decrease in cell number at 0.01 uM incubated for 72 hrs by MTS assay relative to control; assay type: functional; conditions: PANC-1, 72 h, read-out: GI
# [25] = test system: UMSCC1; experiment: Antitumor activity against human UM-SCC-1 cells xenografted in nu/nu mouse assessed as reduction in tumor measured on 4 to 36 day of measurable tumors at 120 mg/kg dosed every 3 days and co-treated with 10 mg/kg OGF relative to control; assay type: functional, organism-based
# [26] = test system: MIA PaCa-2; experiment: Growth inhibition of human MIAPaCa2 cells assessed as decrease in cell number at 0.01 uM in presence of 1 uM OGF incubated for 48 hrs followed by compound wash out by 50% replacement of media and measured after 48 hrs by MTS assay relative to control; assay type: functional, cell-based
# [27] = test system: MIA PaCa-2; experiment: Antitumor activity against human MIAPaCa2 cells xenografted in athymic BALB/c nu/nu nude mouse assessed as effect on tumor incidence at 120 mg/kg dosed every 3 days and co-treated with 10 mg/kg OGF measured on day 16 after tumor cell inoculation relative to control; assay type: functional, organism-based
structure (smiles),measurement,setting,value
Nc1ccn([C@@H]2O[C@H](CO)[C@@H](O)C2(F)F)c(=O)n1 [GEMCITABINE],growth inhibition (GI),[1],Active
same,Activity,[2],606 mg
same,Activity,[3],1477 mm3
same,Activity,[4],0.8 g
same,Time,[5],19.5 days
same,Activity,[6],4849 mm3
same,Time,[7],20 days
same,Activity,[8],3.5 g
same,Activity,[9],60%
same,Time,[10],10.7 days
same,growth inhibition (GI),[11],49%
same,Activity,[12],Active
same,Activity,[13],0%
same,Time,[14],6 days
same,Activity,[15],85%
same,Activity,[16],inactive
same,Activity,[17],437 mg
same,growth inhibition (GI),[18],26%
same,Activity,[19],inactive
same,Activity,[20],Active
same,growth inhibition (GI),[21],26.3%
same,Activity,[22],83%
same,Time,[23],16.2 days
same,inhibition of growth at 0.01 µM,[24],54%
same,Activity,[25],Active
same,growth inhibition (GI),[26],Active
same,Activity,[27],inactive
